Consider two compounds from patent US12616646B2, “Use of rochelle salt” (SKYLAB AG, priority 2021, dated 2026).

A short description of experiment [1]: Antioxidant activity in relation to ascorbic acid by the ferricyanide spectrophotometric method. The following applies: 2% solution in distilled water. An excerpt: Materials and methods. The test item was 2% seignette salt solution in distilled water.
Experiment [2] in a line: FtCl (Ft Cleaning) 300 cleaning and whitening ability test on Martindale tester, Example 1. The settings on record: Δ by 4 cycles values. Here is the method: To determine resistance of dental enamel to attrition on a Martindale tester (hereinafter—Tester) the sets were analyzed—samples of solutions of piezoelectric materials and tooth brushes based on the following indicator: • FtCl (Ft Cleaning) 300, characterizes the cleaning ability of a solution (paste) by making 300 cleaning movements (mah) in a suspension of piezoelectric materials. The indicator is used as an analog of PCR (Pellicle Cleaning Ration) and it enables quantitative assessment of the cleaning and whitening action of a solution (paste) in case of a single-time cleaning. […]
Determination of FtCl300 for a solution of piezoelectric materials: • path: ∞L=25 mm, • rate 150 mah/min, • impact—300 mah, • brush load 325 g, • minimum quantity of parallel determinations—one per each paste with a test brush, • a test tooth brush: tooth brush PROFESSIONAL COMPLETE of medium hardness, • use one brush head for not more than 3-4 cycles, i.e. for 900-1200 mah, owing to wear out of bristles; then replace the brush head with a new one. […]
FtCl300 values were calculated by the formula: FtCl300=100*(Lcl−Lcol)/(Lin−Lcol) Preparation of Solutions: • 1. […]
Test results. […] In this model any color is determined with lightness (L-Lightness) and two chromatic components: channel a—colors from dark green through gray to purple, channel b—colors from blue through gray to yellow. […]

The conditions of experiment [3]: concentration of 0.01%; vegetable oils subjected to heating; cited from earlier work.

As to `O.O.O.O.O=C([O-])C(O)C(O)C(=O)[O-].[K+].[Na+]` (stereo not shown) [seignette salt, potassium sodium tartrate KNaC4H4O6·4H2O], in experiment [1], the “Antioxidant activity (AOA)” value turned out to be 0.00013 mol-eq/l and the “Antioxidant activity, AOA in relation to vitamin C (higher than vitamin C)” value came out at 13.7%. For the same compound, the “difference in FtCl300 to barium titanate” value in experiment [2] was found to be 0.19.
As for `O=C([O-])C(O)C(O)C(=O)[O-].[Na+].[Na+]` (stereo not shown) [sodium tartrate], the antioxidant effect result in experiment [3] is “marked antioxidant effect”.
